Assay results published in patent US4358602A, “Ebelactones and production thereof” (Zaidan Hojin Biseibutsu Kagaku Kenkyu Kao, priority 1980, dated 1982).
Converted amounts (≈) assume the structure as drawn.

Key:
[1] = molecular target: esterase preparation obtained from pig liver; test: Anti-esterase activity assay (modified Huggins and Lapides method); type: biochemical; details: substrate p-nitrophenyl acetate, pH 7.0, room temperature, 20 minutes
Procedure: Firstly, assay of ebelactone for its anti-esterase activity can be made by determining the potency to inhibit esterase according to a modification of the method of C. […] Thus, a commercially available esterase preparation obtained from pig liver (a product of Sigma Co., U.S.A.) is diluted with water to a 1000 folds volume, and the resulting esterase solution (0.025 ml) is admixed with 1 ml of 0.1 M phosphate buffered solution (pH 7.0) containing 0.06% "Triton X-100" (a trade name of an emulsifier consisting of a polyethyleneglycol alkylphenylether, a product of Rohm & Haas Co., U.S.A.) and 0.95 ml of water containing an ebelactone sample to be assayed, and the resulting mixed solution (1.975 ml) is admixed with 0.025 ml of a solution of 40 mM p-nitrophenyl acetate (the substrate) in methanol to start the reaction of p-nitrophenyl acetate with the esterase. After the enzymatic reaction is effected at room temperature for 20 minutes, absorbance (a) at 400 nm of the resulting reaction solution is measured. On the other hand, absorbance (b) at 400 nm of a control reaction solution containing no ebelactone is measured in the same way as above. Percent of inhibition to esterase is calculated according to the following equation:
Inhibition (%)=(b-a)/b×100

[2] = molecular target: T1, formylmethionine aminopeptidase prepared from rat liver (Rattus norvegicus, UniProt P13676); test: Anti-formylmethionine aminopeptidase activity assay; type: biochemical; details: rat liver enzyme, substrate N-formylmethionine β-naphthylamide, pH 7.8, 37° C., 25 minutes; read-out: ID50, dose giving 50% inhibition to formylmethionine aminopeptidase (converted)
T1 construct: Formylmethionineaminopeptidase employed is that prepared from rat liver; from tissue; host or cells: rat liver
T1 sequence (P13676 1-732): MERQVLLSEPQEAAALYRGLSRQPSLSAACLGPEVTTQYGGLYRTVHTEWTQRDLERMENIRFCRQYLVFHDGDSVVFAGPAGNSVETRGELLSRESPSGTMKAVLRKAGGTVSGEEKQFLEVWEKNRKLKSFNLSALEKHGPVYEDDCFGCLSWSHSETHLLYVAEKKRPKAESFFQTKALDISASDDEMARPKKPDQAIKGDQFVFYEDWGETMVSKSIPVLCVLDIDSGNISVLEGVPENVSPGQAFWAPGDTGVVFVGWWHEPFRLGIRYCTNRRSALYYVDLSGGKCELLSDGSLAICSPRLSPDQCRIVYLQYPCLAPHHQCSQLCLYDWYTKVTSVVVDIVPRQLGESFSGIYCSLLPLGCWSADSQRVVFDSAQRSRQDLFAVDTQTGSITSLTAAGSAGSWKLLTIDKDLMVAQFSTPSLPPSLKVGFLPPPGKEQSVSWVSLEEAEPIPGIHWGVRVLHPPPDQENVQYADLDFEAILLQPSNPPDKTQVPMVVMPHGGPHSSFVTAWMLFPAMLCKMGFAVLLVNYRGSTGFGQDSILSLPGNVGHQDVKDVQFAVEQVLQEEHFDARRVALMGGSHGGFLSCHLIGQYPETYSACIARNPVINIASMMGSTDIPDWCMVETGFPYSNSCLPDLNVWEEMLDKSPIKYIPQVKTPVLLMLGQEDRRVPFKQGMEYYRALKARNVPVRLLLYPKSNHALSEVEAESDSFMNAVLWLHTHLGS
Procedure: Further, assay of ebelactone for its anti-formylmethionineaminopeptidase can be made according to the following method. Thus, as the substrate solution is employed a solution of N-formylmethionine β-naphthylamide(as the substrate) in methanol containing 5% (w/v) of "Tween" 20 (a trade name of a non-ionic surface-active agent, a product of Atlas Powder Co., U.S.A.). Formylmethionineaminopeptidase employed is that prepared from rat liver. The substrate solution (0.005 ml), 0.5 ml of 0.1 M Tris-hydrochloric acid buffered solution (pH 7.8) and 0.495 ml of water containing an ebelactone sample to be assayed are mixed together to a total volume of […]. The reaction solution so obtained is further admixed with 0.05 ml of the enzyme solution, followed by effecting the enzymatic reaction at 37° C. for 25 minutes. […] After allowing to stand at ambient temperature for 15 minutes, absorbance (a) at 525 nm of the reaction solution is measured. On the other hand, adsorbance (b) at 525 nm of a control reaction solution obtained from the blank test is measured. Percent of inhibition to the formylmethionine aminopeptidase is calculated in a similar way to the above-mentioned method for determination of the potency for inhibition to esterase.

[3] = tested on: CDF1 mice immunized with sheep red blood cells (SRBC); test: Delayed Type Hypersensitivity (D.T.H.) response to SRBC in mice (cell-mediated immunity); type: in vivo; details: 24 hours after eliciting injection
[4] = tested on: Wister rats, carragheenin-induced footpad swelling; test: Suppression of rat footpad swelling caused by carragheenin; type: in vivo
Procedure: Tests were made to estimate the suppressive effect of ebelactone and esterastin (U.S. Pat. Nos. 4,189,438 and 4,242,453) on the swelling of rat footpad caused by injection of carragheenin when the test compounds were administered orally and intraperitoneally to the test animal, Wister rats (male, body weight:140 to 150 g). The test compound was dissolved in about 0.5 ml of ethanol with addition of one drop of a non-ionic surface-active agent "Tween" 80, and the test compound solution in ethanol was diluted with an aqueous gum arabi to prepare an aqueous suspension containing the test dose of ebelactone or esterastin. The test sample suspension so prepared was then administered orally or intraperitoneally to the rats. One hour later, 1% aqueous carragheenin was injected subcutaneously to the footpad to bring about inflammation. After the injection of carragheenin, the volume of the footpad was measured twice, namely at the end of 3 hours and at the end of 5 hours from the carragheenin injection. For control test, the ebelactone or esterastin was omitted in the above test. Degree (%) of suppression of swelling was calculated from the measured volumes of the inflammated footpad.

[5] = intraperitoneal, 30 mg/kg, 3 Hours after carragheenin
[6] = intraperitoneal, 30 mg/kg, 5 Hours after carragheenin
[7] = intraperitoneal, all dosages and all times, except 5 hours with 5 mg/kg and 3 hours with 10 mg/kg of ebelactone B
[8] = oral, 50 mg/kg, 3 Hours after carragheenin
[9] = oral, 50 mg/kg, 5 Hours after carragheenin

CCC(C)C(O)C(C)C(=O)C(C)C=C(C)CC(C)C1OC(=O)C1C (stereo not drawn) [Ebelactone A, ebelactone A]
ID50, dose giving 50% inhibition to esterase [1]: 0.056 µg/mL (≈ 0.165 µM)
IC50 [2]: 236 nM
Foodpad thickness ([3]; 0.5 mg/kg oral, control 8.1): 12.2 × 0.1 mm
Degree (%) of suppression of inflammation [4, 5]: 45.9%
Degree (%) of suppression of inflammation [4, 6]: 18.5%
reduction in the degree of swelling as compared to the control test group [4, 7]: significant reduction in the degree of swelling

CCC(C)C(O)C(C)C(=O)C(C)C=C(C)CC(C)C1OC(=O)C1CC (stereo not drawn) [Ebelactone B, ebelactone B]
ID50, dose giving 50% inhibition to esterase [1]: 0.00035 µg/mL (≈ 0.000993 µM)
IC50 [2]: 56.7 nM
Foodpad thickness ([3]; 0.5 mg/kg oral, control 8.1): 14.1 × 0.1 mm
Foodpad thickness ([3]; 0.781 mg/kg intraperitoneal at immunization, control 7.4): 14.2 × 0.1 mm
Foodpad thickness ([3]; 3.125 mg/kg intraperitoneal at immunization, control 7.4): 13.6 × 0.1 mm
Foodpad thickness ([3]; 12.5 mg/kg intraperitoneal at immunization, control 7.4): 13.3 × 0.1 mm
Foodpad thickness ([3]; 50 mg/kg intraperitoneal at immunization, control 7.4): 12.2 × 0.1 mm
Degree (%) of suppression of inflammation ([4]; intraperitoneal, 5 mg/kg, 3 Hours after carragheenin): 17.1%
Degree (%) of suppression of inflammation ([4]; intraperitoneal, 5 mg/kg, 5 Hours after carragheenin): 8.8%
Degree (%) of suppression of inflammation ([4]; intraperitoneal, 10 mg/kg, 3 Hours after carragheenin): 9.1%
Degree (%) of suppression of inflammation ([4]; intraperitoneal, 10 mg/kg, 5 Hours after carragheenin): 10.0%
Degree (%) of suppression of inflammation [4, 5]: 50.6%
Degree (%) of suppression of inflammation [4, 6]: 20.9%
reduction in the degree of swelling as compared to the control test group [4, 7]: significant reduction in the degree of swelling
Degree (%) of suppression of swelling ([4]; oral, 10 mg/kg, 3 Hours after carragheenin): 11.2%
Degree (%) of suppression of swelling ([4]; oral, 10 mg/kg, 5 Hours after carragheenin): 8.2%
reduction in the degree of swelling as compared to the control test group ([4]; oral, 10 mg/kg, at 3 hours and 5 hours from carragheenin injection): significant reduction in the degree of swelling
Degree (%) of suppression of swelling [4, 8]: 11.6%
Degree (%) of suppression of swelling [4, 9]: 7.8%
reduction in the degree of swelling as compared to the control test group ([4]; oral, 50 mg/kg, at 3 hours from carragheenin injection): significant reduction in the degree of swelling
Degree (%) of suppression of swelling ([4]; oral, 100 mg/kg, 3 Hours after carragheenin): 7.0%
Degree (%) of suppression of swelling ([4]; oral, 100 mg/kg, 5 Hours after carragheenin): 9.6%
reduction in the degree of swelling as compared to the control test group ([4]; oral, 100 mg/kg, at 5 hours from carragheenin injection): significant reduction in the degree of swelling

CCCCCC=CCC=CCC(CC1OC(=O)C1CCCCCC)OC(=O)C(CC(N)=O)NC(C)=O (stereo not drawn) [Esterastin, esterastin, reference compound]
Degree (%) of suppression of inflammation [4, 5]: 31.1%
Degree (%) of suppression of inflammation [4, 6]: 28.1%
Degree (%) of suppression of swelling [4, 8]: 10.3%
Degree (%) of suppression of swelling [4, 9]: -3.0%
